Experimental data: PubChem BioAssay AID1462 (Emory University Molecular Libraries Screening Center, 2008)
Where “and” joins values, the source holds several entries; their conditions need not be identical. Identical values can stand only once.

Target: Protein GrpE (Escherichia coli (strain K12)) (UniProt P09372)
Experiment: inhibition of DnaK/DnaJ/GrpE luciferase refolding – biochemical, luminescence, E. coli K12, dose response (AID 1462)
Conditions: DnaK/DnaJ/GrpE denatured luciferase refolding

Sequence of Protein GrpE (Escherichia coli (strain K12)) (P09372 whole entry, looked up): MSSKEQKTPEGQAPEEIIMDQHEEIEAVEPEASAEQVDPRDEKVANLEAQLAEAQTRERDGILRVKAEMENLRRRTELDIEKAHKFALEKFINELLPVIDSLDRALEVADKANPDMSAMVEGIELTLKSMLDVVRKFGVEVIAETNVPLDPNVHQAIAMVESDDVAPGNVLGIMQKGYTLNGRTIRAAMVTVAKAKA

Nc1c(S(=O)(=O)O)cc(Nc2ccc(Nc3nc(Cl)nc(Nc4ccc(S(=O)(=O)O)cc4)n3)c(S(=O)(=O)O)c2)c2c1C(=O)c1ccccc1C2=O
IC50: 1.66 µM and 0.551 µM
